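Growth conditions: 96-well plates. Treatment: test compound, 48 hours, 5 concentrations. Analysis: linear interpolation between bracketing concentrations; unreached endpoints set to highest concentration. TGI is the concentration that stops growth completely.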 Where a SMILES comes first, the peptide text is derived from it. The star is where a group is joined. Boc = CC(C)(C)OC(=O)*; OBn = c1ccc(CO*)cc1
How the values were obtained:
Assay in all cases: growth of human tumour cells (NCI), 48 h
[1] = system: COLO 205 colon
[2] = system: SR leukemia
[3] = system: NCI-H23 lung
[4] = system: MCF7 breast
[5] = system: A549 NSCLC
[6] = system: 786-0 renal
[7] = system: SN12C renal
[8] = system: TK-10 renal
[9] = system: A498 renal
[10] = system: NCI-H226 lung
[11] = system: BT-549 breast
[12] = system: K-562 leukemia
[13] = system: KM12 colon
[14] = system: PC-3 prostate
[15] = system: SK-OV-3 ovarian
[16] = system: MDA-MB-231 breast
[17] = system: T-47D breast
[18] = system: HOP-92 NSCLC
[19] = system: UACC-257 melanoma

Row | SMILES | TGI [1] [µM] | TGI [2] [µM] | TGI [3] [µM] | TGI [4] [µM] | TGI [5] [µM] | TGI [6] [µM] | TGI [7] [µM] | TGI [8] [µM] | TGI [9] [µM] | TGI [10] [µM] | TGI [11] [µM] | TGI [12] [µM] | TGI [13] [µM] | TGI [14] [µM] | TGI [15] [µM] | TGI [16] [µM] | TGI [17] [µM] | TGI [18] [µM] | TGI [19] [µM]
1 | O=C1Nc2ccccc2/C1=C/c1c(Cl)[nH]c2ccc(O)cc12 | 6.4 | 12 | 13.8 | 14.8 | > 37.8 | 25.9 | 5.22 | 37.1 | 11.3 | 5.12 | 18.9 | 17.1 | 15.6 | 16.3 | 30.4 | 6.77 | 28.3 | 45 | 22.6
2 | CC(NC(=O)C(Cc1ccccc1)NC(=O)C(Cc1ccccc1)NC(=O)OC(C)(C)C)C(=O)OCc1ccccc1 (stereo not drawn) (Boc-Phe-Phe-Ala-OBn; configuration not given here) | > 100 | > 100 | > 100 | > 100 | > 100 | > 100 | > 100 | > 100 | > 100 | 84 | > 100 | > 100 | > 100 | > 100 | > 100 | > 100 | > 100 | 81.2 | > 100
3 | O=C1C(=C(I)I)c2ccccc2-c2ccccc21 | 3.66 | 10.2 | 16.3 | 13.8 | 34.7 | 4.33 | 4.31 | 3.86 | 30.6 | 36.4 | 15.5 | > 34.9 | 24.6 | 13.5 | 28 | 4.31 | > 100 | 5.66 | 5.04
4 | CCOc1cc2c(cc1OC(C)=O)C(=O)CC[C@H]1C3CC[C@H](OC(C)=O)[C@@]3(C)CC[C@H]21 (some centres not stated) | > 100 | > 100 | > 100 | > 100 | > 100 | > 100 |  | > 100 | > 100 | > 100 | > 100 | > 100 | > 100 | > 100 | > 100 | > 100 | > 100 | > 100 | > 100
5 | COc1cccc2c1C(=O)c1ccc3cc(CCl)cc(O)c3c1C2=O | 0.467 | 1.13 | 1.27 | 1.31 | 1.36 | 0.432 | 0.334 | 0.823 | 1.7 | 1.78 | 1.39 | 2.49 | 0.339 | 0.973 | 1.83 | 0.35 | 1.73 | 1.73 | 0.698
6 | c1ccc(C2OCC(OC3CCCCO3)CO2)cc1 (configuration not stated) | > 100 | > 100 | > 100 | > 100 | > 100 | > 100 | > 100 | > 100 | > 100 | > 100 | > 100 | > 100 |  | > 100 | > 100 | > 100 | > 100 | > 100 | > 100
7 | NC(=O)NC(=O)c1cccc(NC(=O)CF)c1 | > 100 | > 100 | > 100 | > 100 | > 100 | > 100 | > 100 | > 100 | > 100 | > 100 | > 100 | > 100 | > 100 | > 100 | > 100 | > 100 | > 100 | > 100 | > 100
8 | C=C1C(=O)O[C@H]2[C@H]3O[C@@H](C[C@@H]12)[C@@]1(C)CC[C@H](O1)C(C)=CCC[C@H]3C | 3.47 | 0.28 | 2.96 | 3.63 | 6.96 | 2.67 | 4.05 | 2.93 | 3.15 | 7.02 | 2.07 | 3.09 | 3.76 | 2.97 | 16.2 | 3.14 | 6.3 | 3.45 | 3.59
9 | COC(C)(C)CCc1[nH]c2ccccc2c1CC(=O)NCCc1cncn1C | > 100 | > 100 | > 100 | > 100 | > 100 | > 100 | > 100 | > 100 | > 100 | > 100 | > 100 | > 100 | > 100 | > 100 | > 100 | > 100 | > 100 | > 100 | > 100
10 | COC(=O)C1=C(C)NC(C)=C(C(=O)OC)C1c1cccc(NO)c1 | 30.3 | > 100 | 33.8 | 38.5 | > 100 | 28.3 | 32.9 | 27.7 | > 100 | 40.7 | 32.5 | > 100 | 29.4 | 30.4 | > 100 | 31.4 | 55.4 | 23.8 | 27.5
11 | c1ccc2c(c1)nc1n2C2CCC(C2)N1 (configuration not stated) | > 10 | > 10 | > 10 | > 10 | > 10 | > 10 | > 10 | > 10 | > 10 | > 10 | > 10 | > 10 |  | > 10 | > 10 | > 10 | > 10 | > 10 | > 10
12 | CCCCCC[C@H]1C(=O)O[C@H](C)[C@H](NC(=O)c2cccc(NC=O)c2OC)C(=O)O[C@@H](C)[C@@H]1OC(=O)CC(C)C (tested in a mixture with another compound) | 34.7 | 36 | 48.3 | 78.3 | 21.4 | > 100 | > 100 | 50.8 | 47.2 | > 100 | > 100 | > 100 | > 100 | > 100 | 39.2 | 91.7 | > 100 | 81.2 | 55.7
13 | CC1=N[C@](C)(C2CC3C=CC2C3=O)COC1=O (some centres not stated) | > 100 | > 100 | > 100 | > 100 | > 100 | > 100 | > 100 | > 100 | > 100 | > 100 | > 100 | > 100 | > 100 | > 100 | > 100 | > 100 | > 100 | > 100 | > 100
14 | COc1cccc(C2SCC(=O)N2c2ccc(-n3c(-c4ccccc4)nc4ccccc4c3=O)cc2)c1OC (configuration not stated) | > 100 | > 100 | > 100 | > 100 | > 100 | > 100 | > 100 | > 100 | > 100 | > 100 | > 100 | > 100 | > 100 | > 100 | > 100 | > 100 | > 100 | > 100 | > 100
15 | O=C1/C(=C/c2ccccc2)CCC/C1=C\c1ccc(O)c(CN2CCCCC2)c1 | 15.4 | 6.38 | 15.1 | 19.2 | 36.4 | 3.4 | 9.53 | 31 | 12.5 | 16.9 | 10.5 | > 100 | 4.98 | 13.8 | 22.2 | 6.28 | 17.6 | 15.4 | 18.5
16 | CC(C)(C)OC(=O)N/N=C(/N)Cc1ccccc1 | > 100 | > 100 | > 100 | > 100 | > 100 | > 100 | > 100 | > 100 | > 100 | > 100 | > 100 | > 100 | > 100 | > 100 | > 100 | > 100 | > 100 | > 100 | > 100
17 | c1ccc2cc(CNCCOCCOCCNCc3ccc4ccccc4c3)ccc2c1 | 3.01 | 5.45 | 4 | 3.41 | 3.46 | 2.97 | 4.18 | 3.04 | 3.73 | 9.9 | 3.3 | 2.79 | 3.16 | 5.3 | 8.62 | 3.11 | 4.95 | 3.14 | 2.96
18 | Cc1cc2nc(-c3c(F)cccc3F)n(Cc3c(F)cccc3F)c2cc1C | 30.7 | 30.4 | 39.9 | 57.1 | 28.1 | 31.8 | 33.5 | 56.6 | 39.9 | 35.1 | 27.9 | 42.8 | 28.6 | 40.6 | 42.2 | 31 | 47.2 | 30 | 30
19 | CC(C)C/C=C/C1=NN(c2cccc(S(=O)(=O)O)c2)C2(C1)SCC(=O)N2c1nc2ccccc2s1 (configuration not stated) | > 100 | 74.5 | > 100 | > 100 | > 100 | 46.3 | > 100 | > 100 | 88.2 | > 100 | > 100 | > 100 | > 100 | > 100 |  | > 100 | 47.2 | > 100 | > 100

Reference: PubChem BioAssay (NCI)
